# According to patent US20180200257A1, “METHODS FOR THE TREATMENT OF INFLAMMATORY DISORDERS” (Galapagos NV, priority 2015, published 2018):
# Tested on: subjects with moderately to severely active RA who have an inadequate response to methotrexate (MTX)
# Test: Study 1 (add-on to MTX) - Alanine Aminotransferase (ALT) levels
# Format: in vivo, human
# Details: 24 weeks results
# Experimental: Double-blind, placebo-controlled add on study in subjects with moderately to severely active RA who have an inadequate response to methotrexate (MTX) (oral or parenteral).
# 595 subjects randomized to one of 6 dose regimens of Compound 1 (dosed as [Compound 1:HCl:3H2O]) (3 dose levels administered either once or twice daily) or placebo on top of each subject's stable dose of MTX.
# Compound 1 (dosed as [Compound 1:HCl:3H2O]) is dosed for twelve weeks once daily (q.d.) (50 mg, 100 mg or 200 mg) or twice daily (b.i.d.) (25 mg, 50 mg or 100 mg); or placebo.
# At Week 12, the subjects on placebo who have not achieved 20% improvement in swollen joint count (SJC66) and tender joint count (TJC68) are re-randomized automatically to receive Compound 1 (dosed as a [Compound 1:HCl:3H2O]) either at 100 mg q.d. or 50 mg b.i.d. doses in a blinded fashion; subjects on 50 mg q.d. who have not achieved 20% improvement in SJC66 and TJC68 will be assigned to 100 mg q.d. and subjects on 25 mg b.i.d. that have not achieved a 20% improvement in SJC66 and TJC68 will be assigned to 50 mg b.i.d. Subjects who switch treatment at week 12 are handled as if they discontinued at week 12 for the purpose of statistical analysis, whereas subjects in the other groups will maintain their randomized treatment until Week 24.
# ALT levels determination is available at Quest Diagnostics, Clinical Trials, Quest House, 125-135 Staines Road, Hounslow, Middlesex, TW3 3JB, United Kingdom under Catalogue n#84460.
# ALT catalyzes the exchange of the amino group of alanine with the oxogroup of 2-ketoglutarate to form pyruvate and glutamate. In the presence of lactic dehydrogenase, pyruvate reacts with NADH to form NAD+, measured spectrophotometrically. Guidelines for the ALT value have been issued by the association for Clinical Biochemistry and Laboratory Medicine, 130-132 Tooley Street LONDON SE1 2TU, united Kingdom, wherein the ALT value should be below 34 U/l in Female and below 52 U/L in male.
# [1] = from 25 mg b.i.d. to 50 mg b.i.d. at 12 weeks, week 1
# [2] = from 25 mg b.i.d. to 50 mg b.i.d. at 12 weeks, week 2
# [3] = from 25 mg b.i.d. to 50 mg b.i.d. at 12 weeks, week 4
# [4] = from 25 mg b.i.d. to 50 mg b.i.d. at 12 weeks, week 8
# [5] = from 25 mg b.i.d. to 50 mg b.i.d. at 12 weeks, week 12
# [6] = from 25 mg b.i.d. to 50 mg b.i.d. at 12 weeks, week 16
# [7] = from 25 mg b.i.d. to 50 mg b.i.d. at 12 weeks, week 20
# [8] = from 25 mg b.i.d. to 50 mg b.i.d. at 12 weeks, week 24
# [9] = from 50 mg q.d. to 100 mg q.d. at 12 weeks, week 1
# [10] = from 50 mg q.d. to 100 mg q.d. at 12 weeks, week 2
# [11] = from 50 mg q.d. to 100 mg q.d. at 12 weeks, week 4
# [12] = from 50 mg q.d. to 100 mg q.d. at 12 weeks, week 8
# [13] = from 50 mg q.d. to 100 mg q.d. at 12 weeks, week 12
# [14] = from 50 mg q.d. to 100 mg q.d. at 12 weeks, week 16
# [15] = from 50 mg q.d. to 100 mg q.d. at 12 weeks, week 20
# [16] = from 50 mg q.d. to 100 mg q.d. at 12 weeks, week 24
# [17] = placebo switched to 50 mg b.i.d. at week 12, week 16
# [18] = placebo switched to 50 mg b.i.d. at week 12, week 20
# [19] = placebo switched to 50 mg b.i.d. at week 12, week 24
# [20] = placebo switched to 100 mg q.d. at week 12, week 16
# [21] = placebo switched to 100 mg q.d. at week 12, week 20
# [22] = placebo switched to 100 mg q.d. at week 12, week 24
smiles,measurement,setting,value
"O=C(Nc1nc2cccc(-c3ccc(CN4CCS(=O)(=O)CC4)cc3)n2n1)C1CC1 [Compound 1, cyclopropanecarboxylic acid {5-[4-(1,1-dioxo-thiomorpholin-4-ylmethyl)-phenyl]-[1,2,4]triazolo[1,5-a]pyridin-2-yl}-amide]",Study 1 - ALT Mean CFB,"continued 200 mg q.d., week 16",4.7 IU/L
same,Study 1 - ALT Mean percentage CFB,"continued 200 mg q.d., week 16",43.8%
same,Study 1 - ALT Mean CFB,"continued 200 mg q.d., week 20",2.9 IU/L
same,Study 1 - ALT Mean percentage CFB,"continued 200 mg q.d., week 20",32.9%
same,Study 1 - ALT Mean CFB,"continued 200 mg q.d., week 24",5.4 IU/L
same,Study 1 - ALT Mean percentage CFB,"continued 200 mg q.d., week 24",47.5%
same,Study 1 - ALT Mean CFB,[1],−7.8 IU/L
same,Study 1 - ALT Mean percentage CFB,[1],−16.4%
same,Study 1 - ALT Mean CFB,[2],−7.3 IU/L
same,Study 1 - ALT Mean percentage CFB,[2],−12.0%
same,Study 1 - ALT Mean CFB,[3],−5.6 IU/L
same,Study 1 - ALT Mean percentage CFB,[3],0.0%
same,Study 1 - ALT Mean CFB,[4],−8.3 IU/L
same,Study 1 - ALT Mean percentage CFB,[4],−16.4%
same,Study 1 - ALT Mean CFB,[5],−6.4 IU/L
same,Study 1 - ALT Mean percentage CFB,[5],−5.8%
same,Study 1 - ALT Mean CFB,[6],−7.9 IU/L
same,Study 1 - ALT Mean percentage CFB,[6],−9.7%
same,Study 1 - ALT Mean CFB,[7],−5.4 IU/L
same,Study 1 - ALT Mean percentage CFB,[7],5.9%
same,Study 1 - ALT Mean CFB,[8],−4.8 IU/L
same,Study 1 - ALT Mean percentage CFB,[8],5.7%
same,Study 1 - ALT Mean CFB,[9],0.4 IU/L
same,Study 1 - ALT Mean percentage CFB,[9],0.9%
same,Study 1 - ALT Mean CFB,[10],−1.4 IU/L
same,Study 1 - ALT Mean percentage CFB,[10],−6.5%
same,Study 1 - ALT Mean CFB,[11],−0.3 IU/L
same,Study 1 - ALT Mean percentage CFB,[11],2.2%
same,Study 1 - ALT Mean CFB,[12],−0.2 IU/L
same,Study 1 - ALT Mean percentage CFB,[12],3.6%
same,Study 1 - ALT Mean CFB,[13],−0.1 IU/L
same,Study 1 - ALT Mean percentage CFB,[13],5.2%
same,Study 1 - ALT Mean CFB,[14],−2.3 IU/L
same,Study 1 - ALT Mean percentage CFB,[14],−9.8%
same,Study 1 - ALT Mean CFB,[15],−1.7 IU/L
same,Study 1 - ALT Mean percentage CFB,[15],−3.7%
same,Study 1 - ALT Mean CFB,[16],−3.0 IU/L
same,Study 1 - ALT Mean percentage CFB,[16],−8.7%
same,Study 1 - ALT Mean CFB,[17],0.5 IU/L
same,Study 1 - ALT Mean percentage CFB,[17],1.1%
same,Study 1 - ALT Mean CFB,[18],0.7 IU/L
same,Study 1 - ALT Mean percentage CFB,[18],0.7%
same,Study 1 - ALT Mean CFB,[19],1.0 IU/L
same,Study 1 - ALT Mean percentage CFB,[19],6.8%
same,Study 1 - ALT Mean CFB,[20],−1.3 IU/L
same,Study 1 - ALT Mean percentage CFB,[20],0.4%
same,Study 1 - ALT Mean CFB,[21],0.5 IU/L
same,Study 1 - ALT Mean percentage CFB,[21],5.9%
same,Study 1 - ALT Mean CFB,[22],−0.1 IU/L
same,Study 1 - ALT Mean percentage CFB,[22],10.0%
